# Results from patent publication US10945932B2, “Prebiotic oral care compositions containing carboxylic acids” (COLGATE-PALMOLIVE COMPANY, priority 2013, dated 2021).
# Read-outs that look alike come from different tables or passages of the source.
# Columns and labels:
# Actinomyces viscosus [1] = experiment: Metabolic activity, Biolog phenotype microarray; assay type: cell-based; conditions: A viscosus
# Procedure: (§1) The extent of metabolic activity of the tested bacteria in the presence of the above-mentioned acids after 24 hours and 48 hours was investigated through a high throughput phenotype microarray system (PM) for microbial cells (Biolog Inc.). Each PM can contain up to 95 different biochemical compounds (e.g. organic acids) that may act as substrates for bacteria as well as one negative control, not containing the substrates. Microarray plates were used in which the different wells of each plate were pre-loaded (by the manufacturer, Biolog Inc.) with different organic acids to be tested. Each bacterial species was tested using a separate microarray plate. Thus, a single bacterial species was tested with a variety of organic acids on each particular plate. The microarrays are based on redox technology, using cell respiration as a universal reporter. […] The observation of this color change indicates which of the substrates improve the metabolic activity and health of the cells.
# (§2) Each bacterial species was collected from blood agar plates (incubated for 48 hours anaerobically at 37° C.) and transferred to an IF-0 Base inoculation fluid (Biolog Inc.), which is a nutritionally poor medium. […] A 1:5 dilution of this suspension was prepared by mixing 3 mL of the 42% transmittance cell suspension with 15 mL of an inoculation fluid (which inoculation fluid was formed by mixing 11.6 mL sterile water, 62.5 mL IF-0 base inoculation fluid and 0.9 mL of the tetrazolium dye “Biolog Redox Dye mix D”), resulting in a final cell density which was equal to 85% transmittance using a BioRad SmartSpec 3000 Photometer. For each of the acids tested, the microarray plate (obtained from the supplier (Biolog Inc.) with acid already present in the relevant wells in powder form) was directly inoculated with 100 μL/well of this 85% transmittance cell suspension.
# (§3) All plates were incubated in an anaerobic atmosphere at 37° C. Color changes were measured spectrophotometrically at 492 nm (Thermo Scientific Multiskan Ascent) at 24 hrs and 48 hrs using the same plate at both time points.
# (§4) The controls were also carried out three times, as above.
# [2] = system: Aggregatibacter actinomycetemcomitans; experiment: Metabolic activity, Biolog phenotype microarray; assay type: cell-based; conditions: A actinomycetemcomitans
# Procedure: as §1, §2, §3, §4
# Capnocytophaga sputigena [3] = experiment: Metabolic activity, Biolog phenotype microarray; assay type: cell-based; conditions: C sputigena
# Procedure: as §1, §2, §3, §4
# Fusobacterium nucleatum = experiment: Metabolic activity, Biolog phenotype microarray; assay type: cell-based; conditions: F nucleatum
# Procedure: as §1, §2, §3, §4
# Streptococcus mitis = experiment: Metabolic activity, Biolog phenotype microarray; assay type: cell-based; conditions: S mitis
# Procedure: as §1, §2, §3, §4
# Streptococcus mutans [4] = experiment: Metabolic activity, Biolog phenotype microarray; assay type: cell-based; conditions: S mutans
# Procedure: as §1, §2, §3, §4
# Streptococcus salivarius [5] = experiment: Metabolic activity, Biolog phenotype microarray; assay type: cell-based; conditions: S salivarius
# Procedure: as §1, §2, §3, §4
# Streptococcus sanguinis [6] = experiment: Metabolic activity, Biolog phenotype microarray; assay type: cell-based; conditions: S sanguinis
# Procedure: as §1, §2, §3, §4
# Streptococcus sobrinus = experiment: Metabolic activity, Biolog phenotype microarray; assay type: cell-based; conditions: S sobrinus
# Procedure: as §1, §2, §3, §4
# Tannerella forsythia = experiment: Metabolic activity, Biolog phenotype microarray; assay type: cell-based; conditions: T forsythia
# Procedure: as §1, §2, §3, §4
# Veillonella parvula = experiment: Metabolic activity, Biolog phenotype microarray; assay type: cell-based; conditions: V parvula
# Procedure: as §1, §2, §3, §4
# [7] = system: beneficial oral bacteria and pathogenic oral bacteria; experiment: Metabolic activity, prebiotic effect over the whole panel; assay type: cell-based; conditions: 48 hrs; threshold value of 2
# Procedure: as §1, §2, §3, §4
# [8] = system: beneficial oral bacteria and pathogenic oral bacteria; experiment: Biofilm growth, prebiotic effect over the whole panel; assay type: cell-based; conditions: 25 μmol/ml; 48 hours; threshold value of 1.6
# Procedure: Late exponential growth phase liquid cultures were prepared by transferring the respective bacterium from blood agar plates to BHI and overnight incubation at 37° C. in an anaerobic atmosphere for A. viscosus, V. parvula, F. nucleatum, P. gingivalis, P. intermedia, T. forsythia, A. naeslundii, and C. sputigena, and in a 5% CO2 environment for S. salivarius, S. sanguinis, S. mitis, A. actinomycetemcomitans, S. mutans, and S. gordonii. […] Additionally, for each bacterium tested, a background control, to correct for background staining, was added. This background control contained the bacterium tested and 0.03 weight % chlorhexidine, as an antiseptic. Plates were incubated as previously described. After 48 hrs the supernatant was removed from the wells of the plates. The wells were washed twice with 1×100 μL/PBS (phosphate buffered saline), fixed for 20 minutes with 96% vol. ethanol (96% vol. solution in water) and the biofilm retained at the bottom of the wells was stained with 1 weight % crystal violet (1 weight % solution in water). […] Quantification of the stained biofilm was performed by measuring the absorbance at 630 nm using a Multiskan Ascent microplate reader (Thermo Scientific).
# [9] = system: Aggregatibacter actinomycetemcomitans; conditions: A actinomycetemcomitans, BHI
# Procedure: (§5) Late exponential growth phase liquid cultures were prepared by transferring the respective bacterium from blood agar plates to BHI and overnight incubation at 37° C. in an anaerobic atmosphere for A. viscosus, V. parvula, F. nucleatum, P. gingivalis, P. intermedia, T forsythia, A. naeslundii, and C. sputigena, and in a 5% CO2 environment for S. salivarius, S. sanguinis, S. mitis, A. actinomycetemcomitans, S. mutans, S. sobrinus and S. gordonii. Overnight cultures were transferred to BHI and adjusted to a concentration of 1×10^7 CFU/ml (colony forming units per ml) by measuring the optical density at 600 nm (OD600) (BioRad SmartSpec 3000). For each strain, 200 μl of the bacterial suspension was added to a 96-well plate containing 20 μl of the respective carboxylic acids. Final concentrations of the carboxylic acids were set to 5, 10, 20 and 25 μmol/ml. […] Plates were incubated as previously described.
# (§6) For each combination of bacterium/carboxylic acid, and for each of their respective controls (i.e. the particular bacterium in the nutritionally rich medium with no carboxylic acid), the optical density was measured at 630 nm (OD630) at 0 h, 24 h and 48 h (Thermo Scientific Multiskan Ascent). Additionally, the OD630 for combinations of bacterium/carboxylic acid grown in a 5% CO2 environment were also measured every hour between 0 h and 9 h.
# (§7) The experiment was carried out on three different days (thus providing 3 biological replicas) and on each day the experiment was carried out in quadruple (thus providing 4 technical replicas) for each combination of bacterium with carboxylic acid and for each control. For each day and for each combination, the average (mean) of the values obtained (as detailed above) for the four technical replicas was calculated to provide a single value for each combination on each day.
# Streptococcus mutans [10] = conditions: S mutans, BHI
# Procedure: as §5, §6, §7
# Capnocytophaga sputigena [11] = conditions: C sputigena, BHI
# Procedure: as §5, §6, §7
# Actinomyces viscosus [12] = conditions: A viscosus, BHI
# Procedure: as §5, §6, §7
# Streptococcus salivarius [13] = conditions: S salivarius, BHI
# Procedure: as §5, §6, §7
# Streptococcus sanguinis [14] = conditions: S sanguinis, BHI
# Procedure: as §5, §6, §7
# [15] = system: beneficial oral bacteria and pathogenic oral bacteria; conditions: over 48 hours, threshold value of 1.25
# Excerpt: The beneficial oral bacteria tested were Streptococcus mitis, Streptococcus salivarius, Streptococcus sanguinis, Actinomyces viscosus, Streptococcus gordonii, Capnocytophaga sputigena, Actinomyces naeslundii and Veillonella parvula. The pathogenic oral bacteria tested were Streptococcus mutans, Prevotella intermedia, Porphyromonas gingivalis, Fusobacterium nucleatum, Tannerella forsythia, Aggregatibacter actinomycetemcomitans and Streptococcus sobrinus.
# as §5, §6, §7
# This value was selected in order to exclude low-stimulating metabolites and avoid false positive results.
smiles,measurement,setting,value
N[C@@H](CC(=O)O)C(=O)O [L-aspartic acid],"metabolic activity, OD at 492 nm divided by OD of control (control = 1)",Actinomyces viscosus [1]; 24 hrs,0.9434
same,"metabolic activity, OD at 492 nm divided by OD of control (control = 1)",Actinomyces viscosus [1]; 48 hrs,0.9275
same,"metabolic activity, OD at 492 nm divided by OD of control (control = 1)",[2]; 24 hrs,1.4358
same,"metabolic activity, OD at 492 nm divided by OD of control (control = 1)",[2]; 48 hrs,1.6253
same,"metabolic activity, OD at 492 nm divided by OD of control (control = 1)",Capnocytophaga sputigena [3]; 24 hrs,0.7060
same,"metabolic activity, OD at 492 nm divided by OD of control (control = 1)",Capnocytophaga sputigena [3]; 48 hrs,0.7655
same,"metabolic activity, OD at 492 nm divided by OD of control (control = 1)",Fusobacterium nucleatum; 24 hrs,0.9201
same,"metabolic activity, OD at 492 nm divided by OD of control (control = 1)",Fusobacterium nucleatum; 48 hrs,0.9448
same,"metabolic activity, OD at 492 nm divided by OD of control (control = 1)",Streptococcus mitis; 24 hrs,1.0323
same,"metabolic activity, OD at 492 nm divided by OD of control (control = 1)",Streptococcus mitis; 48 hrs,0.9065
same,"metabolic activity, OD at 492 nm divided by OD of control (control = 1)",Streptococcus mutans [4]; 24 hrs,0.9715
same,"metabolic activity, OD at 492 nm divided by OD of control (control = 1)",Streptococcus mutans [4]; 48 hrs,0.8709
same,"metabolic activity, OD at 492 nm divided by OD of control (control = 1)",Streptococcus salivarius [5]; 24 hrs,0.9496
same,"metabolic activity, OD at 492 nm divided by OD of control (control = 1)",Streptococcus salivarius [5]; 48 hrs,0.8503
same,"metabolic activity, OD at 492 nm divided by OD of control (control = 1)",Streptococcus sanguinis [6]; 24 hrs,0.9451
same,"metabolic activity, OD at 492 nm divided by OD of control (control = 1)",Streptococcus sanguinis [6]; 48 hrs,0.9195
same,"metabolic activity, OD at 492 nm divided by OD of control (control = 1)",Streptococcus sobrinus; 24 hrs,1.0053
same,"metabolic activity, OD at 492 nm divided by OD of control (control = 1)",Streptococcus sobrinus; 48 hrs,0.9338
same,"metabolic activity, OD at 492 nm divided by OD of control (control = 1)",Tannerella forsythia; 24 hrs,0.9565
same,"metabolic activity, OD at 492 nm divided by OD of control (control = 1)",Tannerella forsythia; 48 hrs,0.9575
same,"metabolic activity, OD at 492 nm divided by OD of control (control = 1)",Veillonella parvula; 24 hrs,1.8448
same,"metabolic activity, OD at 492 nm divided by OD of control (control = 1)",Veillonella parvula; 48 hrs,2.2760
same,prebiotic effect (metabolic activity),[7],exhibited prebiotic effects
same,prebiotic effect (biofilm growth),[8],exhibited prebiotic effects
same,"extent of growth, maximal OD630 over 48 hr divided by maximal OD of control (control = 1)",[9]; 5 μmol/ml,0.7612
same,"extent of growth, maximal OD630 over 48 hr divided by maximal OD of control (control = 1)",[9]; 10 μmol/ml,0.7493
same,"extent of growth, maximal OD630 over 48 hr divided by maximal OD of control (control = 1)",[9]; 20 μmol/ml,0.6806
same,"extent of growth, maximal OD630 over 48 hr divided by maximal OD of control (control = 1)",[9]; 25 μmol/ml,0.6885
same,"extent of growth, maximal OD630 over 48 hr divided by maximal OD of control (control = 1)",Streptococcus mutans [10]; 5 μmol/ml,0.9466
same,"extent of growth, maximal OD630 over 48 hr divided by maximal OD of control (control = 1)",Streptococcus mutans [10]; 10 μmol/ml,0.9230
same,"extent of growth, maximal OD630 over 48 hr divided by maximal OD of control (control = 1)",Streptococcus mutans [10]; 20 μmol/ml,0.9036
same,"extent of growth, maximal OD630 over 48 hr divided by maximal OD of control (control = 1)",Streptococcus mutans [10]; 25 μmol/ml,0.9149
same,"extent of growth, maximal OD630 over 48 hr divided by maximal OD of control (control = 1)",Capnocytophaga sputigena [11]; 5 μmol/ml,0.9521
same,"extent of growth, maximal OD630 over 48 hr divided by maximal OD of control (control = 1)",Capnocytophaga sputigena [11]; 10 μmol/ml,0.9529
same,"extent of growth, maximal OD630 over 48 hr divided by maximal OD of control (control = 1)",Capnocytophaga sputigena [11]; 20 μmol/ml,0.9776
same,"extent of growth, maximal OD630 over 48 hr divided by maximal OD of control (control = 1)",Capnocytophaga sputigena [11]; 25 μmol/ml,0.9489
same,"extent of growth, maximal OD630 over 48 hr divided by maximal OD of control (control = 1)",Actinomyces viscosus [12]; 5 μmol/ml,0.6862
same,"extent of growth, maximal OD630 over 48 hr divided by maximal OD of control (control = 1)",Actinomyces viscosus [12]; 10 μmol/ml,0.6163
same,"extent of growth, maximal OD630 over 48 hr divided by maximal OD of control (control = 1)",Actinomyces viscosus [12]; 20 μmol/ml,0.5787
same,"extent of growth, maximal OD630 over 48 hr divided by maximal OD of control (control = 1)",Actinomyces viscosus [12]; 25 μmol/ml,0.5023
same,"extent of growth, maximal OD630 over 48 hr divided by maximal OD of control (control = 1)",Streptococcus salivarius [13]; 5 μmol/ml,0.9808
same,"extent of growth, maximal OD630 over 48 hr divided by maximal OD of control (control = 1)",Streptococcus salivarius [13]; 10 μmol/ml,0.9975
same,"extent of growth, maximal OD630 over 48 hr divided by maximal OD of control (control = 1)",Streptococcus salivarius [13]; 20 μmol/ml,1.0719
same,"extent of growth, maximal OD630 over 48 hr divided by maximal OD of control (control = 1)",Streptococcus salivarius [13]; 25 μmol/ml,0.9943
same,"extent of growth, maximal OD630 over 48 hr divided by maximal OD of control (control = 1)",Streptococcus sanguinis [14]; 5 μmol/ml,0.8662
same,"extent of growth, maximal OD630 over 48 hr divided by maximal OD of control (control = 1)",Streptococcus sanguinis [14]; 10 μmol/ml,0.8606
same,"extent of growth, maximal OD630 over 48 hr divided by maximal OD of control (control = 1)",Streptococcus sanguinis [14]; 20 μmol/ml,0.8622
same,"extent of growth, maximal OD630 over 48 hr divided by maximal OD of control (control = 1)",Streptococcus sanguinis [14]; 25 μmol/ml,0.8613
same,prebiotic effect (extent of growth),[15]; 10 μmol/ml,exhibited prebiotic effects
same,prebiotic effect (extent of growth),[15]; 20 μmol/ml,exhibited prebiotic effects
